Measured values: ChEMBL document CHEMBL1149482, “Syntheses of triazole-modified zanamivir analogues via click chemistry and anti-AIV activities” (Bioorg Med Chem Lett, 2006)
pEC50: −log10 of the molar value. The source made the active and inactive calls. The calls are words filed in the database; no cut-off is given here.

What follows are molecules tested on MDCK (assay: Antiviral activity against avian influenza virus H5N1 measured as protective rate against MDCK cells at 50 uM by neutral red uptake assay). Details: not given.
Assay type: functional

Row | Structure (SMILES) | Activity
1 | CC(=O)N[C@H]1[C@H]([C@H](O)[C@H](O)CO)OC(C(=O)O)=C[C@@H]1n1cc(CCCO)nn1 | 6.3%
2 | CC(=O)N[C@H]1[C@H]([C@H](O)[C@H](O)CO)OC(C(=O)O)=C[C@@H]1n1cc(-c2ccc(-c3ccccc3)cc2)nn1 | 19.1%
3 | CC(=O)N[C@H]1[C@H]([C@H](O)[C@H](O)CO)OC(C(=O)O)=C[C@@H]1n1cc(COc2ccccc2)nn1 | 34.8%
4 | CCC(O)c1cn([C@H]2C=C(C(=O)O)O[C@@H]([C@H](O)[C@H](O)CO)[C@@H]2NC(C)=O)nn1 (some centres undefined) | >61.4%
5 | CC(=O)N[C@H]1[C@H]([C@H](O)[C@H](O)CO)OC(C(=O)O)=C[C@@H]1n1cc(C2CC2)nn1 | 8.9%
6 | CCCc1ccc(-c2cn([C@H]3C=C(C(=O)O)O[C@@H]([C@H](O)[C@H](O)CO)[C@@H]3NC(C)=O)nn2)cc1 | 22.1%
7 | COC(=O)C1=C[C@H](n2cc(C(=O)OC)nn2)[C@@H](NC(C)=O)[C@H]([C@H](O)[C@H](O)CO)O1 | 9.9%
8 | CC(=O)N[C@H]1[C@H]([C@H](O)[C@H](O)CO)OC(C(=O)O)=C[C@@H]1n1cc(-c2ccccn2)nn1 | inactive
9 | CCCOc1ccc(-c2cn([C@H]3C=C(C(=O)O)O[C@@H]([C@H](O)[C@H](O)CO)[C@@H]3NC(C)=O)nn2)cc1 | 40.2%
10 | CCc1ccc(-c2cn([C@H]3C=C(C(=O)O)O[C@@H]([C@H](O)[C@H](O)CO)[C@@H]3NC(C)=O)nn2)cc1 | 34.4%
11 | CC(=O)N[C@H]1[C@H]([C@H](O)[C@H](O)CO)OC(C(=O)O)=C[C@@H]1n1cc(CN2CCOCC2)nn1 | 17.3%
12 | CC(=O)N[C@H]1[C@H]([C@H](O)[C@H](O)CO)OC(C(=O)O)=C[C@@H]1NC(=N)N [ZANAMIVIR] | 86.1%
13 | CC(=O)N[C@H]1[C@H]([C@H](O)[C@H](O)CO)OC(C(=O)O)=C[C@@H]1n1cc(CN)nn1 | inactive
14 | CC(=O)N[C@H]1[C@H]([C@H](O)[C@H](O)CO)OC(C(=O)O)=C[C@@H]1n1cc(-c2ccc(F)cc2)nn1 | inactive
15 | CC(=O)N[C@H]1[C@H]([C@H](O)[C@H](O)CO)OC(C(=O)O)=C[C@@H]1n1cc(-c2ccccc2)nn1 | 18.7%
16 | CCC(O)c1cn([C@H]2C=C(C(=O)OCCC(C)C)O[C@@H]([C@H](O)[C@H](O)CO)[C@@H]2NC(C)=O)nn1 (some centres undefined) | 8.9%
17 | CC(=O)N[C@H]1[C@H]([C@H](O)[C@H](O)CO)OC(C(=O)O)=C[C@@H]1n1cc(CCO)nn1 | 14.5%

What follows are molecules tested on MDCK (assay: Antiviral activity against avian influenza virus H5N1 in MDCK cells measured as reduction in infected cells relative to control). Details: Canis lupus familiaris.
Assay type: functional, cell-based

Row | Structure (SMILES) | pEC50
18 | CCC(O)c1cn([C@H]2C=C(C(=O)O)O[C@@H]([C@H](O)[C@H](O)CO)[C@@H]2NC(C)=O)nn1 (some centres undefined) | 5.19
19 | CC(=O)N[C@H]1[C@H]([C@H](O)[C@H](O)CO)OC(C(=O)O)=C[C@@H]1NC(=N)N [ZANAMIVIR] | 5.55
